Laboratory results from patent US20200148682A1, “AKT ISOZYME-SPECIFIC COVALENT INHIBITORS DERIVED FROM REDOX-SIGNALING LIPIDS” (Cornell University, priority 2017, published 2020).

Assays:
Type in all cases: cell-based
[1] = target: T1, Halo-Akt3 (Homo sapiens, UniProt Q9Y243); experiment: AKTAR FRET assay in live HEK293T cells; settings: for Akt3 activity (green/blue FRET ratio) during treatment: 5 μM, 24 hours
T1 construct: expressed in transfected cells; host or cells: HEK293T
Experimental: (§1) FIGS. 21C-21D: HEK293T cells were transfected with plasmids encoding AKTAR and Halo-Akt3 (1:1). After 12 hours, cells were treated with MK-2206 (5 μM) or MK-HNE (5 μM). After 24 hours and 48 hours Akt3 activity was measured using ratiometric FRET analysis in live cells. After 48 hours, cells were washed two times with drug-free media containing 10% FBS and allowed to recover in 3% FBS MEM media for another 24 hours, after which time Akt3 activity was assayed using FRET again. wd=withdrawal for 24 hours. […] FIG. 21D is a graph showing quantitation of all data sets for treatment of HEK293T cells expressing Halo-Akt3/AKTAR. […] FIG. 21F is a graph showing quantitation of all data sets for treatment of HEK293T cells expressing Halo-Akt2/AKTAR. […] FIG. 21H is a graph showing quantitation of all data sets for treatment of HEK293T cells expressing Halo-Akt3C119S mutant/AKTAR.
(§2) HEK293T cells were plated in imaging plates at 60% confluence. After 24 hours, cells in each plate were transfected with 1 μg AktAR reporter plasmid and 1 μg plasmid of the designated HaloTag fusion Akt gene in PCS2+8 vector, using TransIT 2020 (6 μL) (FIG. 21B). 12 hours after transfection, cells were treated with 5 μM inhibitor or the equivalent final volume of DMSO in rinse medium containing 3% FBS and incubated for 24 hours before imaging. FRET imaging was performed using a Zeiss LSM 710 confocal microscope as previously described. Briefly, a 458 nm argon laser was used for excitation. The signals in the cyan channel (463-498 nm) and the yellow channel (525-620 nm) were recorded. Cells were then incubated in drug medium for another 24 hours before next imaging. The medium was aspirated and the cells were gently rinsed with 3% FBS in rinse medium twice every 30 min over the next hour, Fresh rinse medium with 3% FBS was added and the cells were imaged again after 24 hours. For quantification, the mean CFP and YFP signal intensity was measured using Image by drawing a freehand circle around the cells, and the ratio image was calculated. Graphing and data analysis (Student's t-test) were performed using Prism software.
(§3) One of the key benefits of covalent inhibition is the ability to uncouple pharmacokinetics from pharmacodynamics. This effect is achieved, because once irreversible inhibition occurs, an irreversible inhibitor will remain bound to its target post clearance of the unbound inhibitor. On the other hand, for a reversible inhibitor, as drug concentration drops, the drug is released from its target and inhibition is lost. This situation can be modeled in cell culture by removal of the drug from the media and measuring changes in activity as a function of time post drug removal. Akt inhibition was assayed using AKTAR (FIG. 21A). This fusion of two fluorescent proteins emits two different frequencies of light when excited with blue light, depending on the activity of Akt. When the construct is selectively phosphorylated by Akt, both blue and green light are emitted, due to fluorescence resonance energy transfer (FRET) from the CFP to the YFP. However, when the protein is not phosphorylated, emission is mainly in the blue channel. Thus the ratio of green to blue emission is a direct readout of Akt activity in live cells.

[2] = target: T2, Akt3(C119S) (Homo sapiens, UniProt Q9Y243, C119S); experiment: AKTAR FRET assay in live HEK293T cells; settings: for Akt3(C119S) activity (FRET) during treatment: 5 μM; for Akt3(C119S) activity (FRET) after drug withdrawal: 24 hours after removal from media
T2 construct: expressed in transfected cells; host or cells: HEK293T
T2 sequence (Q9Y243 whole entry C119S): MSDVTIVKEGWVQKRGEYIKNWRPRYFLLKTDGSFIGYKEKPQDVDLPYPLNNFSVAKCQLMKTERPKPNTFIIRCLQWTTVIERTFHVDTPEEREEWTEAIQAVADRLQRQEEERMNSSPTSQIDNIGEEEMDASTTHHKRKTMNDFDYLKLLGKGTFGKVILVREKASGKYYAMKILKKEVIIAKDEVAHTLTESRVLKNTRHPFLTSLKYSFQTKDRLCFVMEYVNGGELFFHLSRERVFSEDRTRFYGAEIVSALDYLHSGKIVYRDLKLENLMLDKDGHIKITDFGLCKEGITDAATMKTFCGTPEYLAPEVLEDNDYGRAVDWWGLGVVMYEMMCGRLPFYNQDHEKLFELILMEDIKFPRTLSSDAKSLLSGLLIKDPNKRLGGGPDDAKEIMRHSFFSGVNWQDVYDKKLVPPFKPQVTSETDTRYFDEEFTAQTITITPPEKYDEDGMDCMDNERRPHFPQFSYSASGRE
Experimental: as §1, §2, §3

[3] = target: T3, Halo-Akt2 (Homo sapiens, UniProt P31751); experiment: AKTAR FRET assay in live HEK293T cells; settings: 5 μM, 24 hours
T3 construct: expressed in transfected cells; host or cells: HEK293T
T3 sequence (P31751 whole entry): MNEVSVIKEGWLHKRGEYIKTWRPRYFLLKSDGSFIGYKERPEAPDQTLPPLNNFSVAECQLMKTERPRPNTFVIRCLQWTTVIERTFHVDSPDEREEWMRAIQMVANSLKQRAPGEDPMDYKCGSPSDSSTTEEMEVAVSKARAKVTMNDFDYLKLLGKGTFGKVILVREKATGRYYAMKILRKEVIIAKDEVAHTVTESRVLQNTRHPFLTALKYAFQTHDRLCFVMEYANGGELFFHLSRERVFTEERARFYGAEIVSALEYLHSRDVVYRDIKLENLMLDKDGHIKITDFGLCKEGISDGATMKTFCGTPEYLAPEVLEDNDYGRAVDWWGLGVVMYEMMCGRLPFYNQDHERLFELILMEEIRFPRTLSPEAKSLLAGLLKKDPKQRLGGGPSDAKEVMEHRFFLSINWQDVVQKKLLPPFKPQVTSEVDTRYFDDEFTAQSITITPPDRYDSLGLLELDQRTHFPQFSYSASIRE
Experimental: as §1, §2, §3

[4] = tested on: MDA-MB-468 cells; experiment: Cell cycle analysis using flow cytometry; settings: for effect on cell cycle: 72 hours
Experimental: MDA-MB-468 cells in a 6-well plate at 10% confluence were treated with HNE alkyne or the indicated drug at PI60 or PI80 concentration for 72 hours at 37° C. Negative control contained the equivalent volume of DMSO. Cells were grown and analyzed in separate batches of 1-2 replicates per condition that were run 2-3 times each. Each time the data points were normalized to the control set for each batch. At the indicated time post compound treatment, the culture medium was aspirated and the adherent cells were detached from the plate using trypsin, quenched with complete media, centrifuged (700 g), washed once with PBS, centrifuged (700 g), resuspended in PBS, then fixed with 70% ethanol for 24 hours. The cell suspensions were spun down at 1,000 g and washed with 500 μl of PBS twice. Each cell pellet was treated with 500 μL staining solution containing 50 μl of Ribonuclease A (≥70 Kunitz units/mg proteins, R6513, Sigma-Aldrich) and 50 μl of a propidium iodide (1 mg/ml, Sigma-Aldrich) solution in PBS with 1% BSA. The resulting solution was incubated with agitation at room temperature for 30 min in the dark.
The stained cells were assayed on a BD LSR II flow cytometer. FlowJo® was used to deconvolute the signals. Cells were grouped first by forward and side scatter (area), then that group was regrouped using forward (width) versus forward (area) scatter to give single cells. Cells were than analyzed using cellular DNA content to quantitate the percentage of cells in the respective phases (G1, S, G2/M and sub-G0) of the cell cycle.

T1 sequence (Q9Y243 whole entry): as the sequence (Q9Y243 whole entry C119S) above, with S119C counted along it

SMILES | Akt3 activity (green/blue FRET ratio) during treatment [1] | Akt3 activity (green/blue FRET ratio) after drug withdrawal ([1]; 48 hours drug, then 24 hours withdrawal) | Akt3(C119S) activity (FRET) during treatment [2] | Akt3(C119S) activity (FRET) after drug withdrawal [2] | Akt2 activity (green/blue FRET ratio) during treatment [3] | G1/G0 (percentage of cells in phase) ([4]; drug at PI60, 72 hours) | G2/M (percentage of cells in phase) ([4]; drug at PI60, 72 hours) | S (percentage of cells in phase) ([4]; drug at PI60, 72 hours) | subG0 (percentage of cells in phase) ([4]; drug at PI60, 72 hours) | G1/G0 (percentage of cells in phase) ([4]; drug at PI80, 72 hours) | G2/M (percentage of cells in phase) ([4]; drug at PI80, 72 hours) | S (percentage of cells in phase) ([4]; drug at PI80, 72 hours) | subG0 (percentage of cells in phase) ([4]; drug at PI80, 72 hours) | effect on cell cycle [4]
NC1(c2ccc(-c3nc4ccn5c(=O)[nH]nc5c4cc3-c3ccccc3)cc2)CCC1 [MK-2206] | decrease in green/blue fluorescence | returned to those observed in untreated cells | Akt inhibition was observed | no inhibition was observed | decrease in green/blue fluorescence | 41.8 | 31.3 | 25.4 | 0.3 | 50.2 | 29.0 | 19.6 | 0.3 | –
C#CCCCC(F)/C=C/C(=O)NC1(c2ccc(-c3nc4ccn5c(=O)[nH]nc5c4cc3-c3ccccc3)cc2)CCC1.Cl (centres unmarked) [MK-FNE, (E)-8-(4-(1-(4-Fluoronon-2-en-8-ynamido)cyclobutyl)phenyl)-3-oxo-9-phenyl-2,3-dihydro-[1,2,4]triazolo[3,4-f][1,6]naphthyridin-7-ium Chloride] | decrease in green/blue fluorescence | – | – | – | decrease in green/blue fluorescence | 47.0 | 33.3 | 18.6 | 0.5 | 58.9 | 27.0 | 11.9 | 0.8 | G1 arrest
C#CCCCC(O)/C=C/C(=O)NC1(c2ccc(-c3nc4ccn5c(=O)[nH]nc5c4cc3-c3ccccc3)cc2)CCC1.Cl (centres unmarked) [MK-HNE, (E)-8-(4-(1-(4-Hydroxynon-2-en-8-ynamido)cyclobutyl)phenyl)-3-oxo-9-phenyl-2,3-dihydro-[1,2,4]triazolo[3,4-f][1,6]naphthyridin-7-ium Chloride] | – | – | Akt inhibition was observed | no inhibition was observed | – | 41.7 | 30.3 | 25.9 | 0.4 | 49 | 25.5 | 16.6 | 5.5 | G1 arrest
